Patent US9611275B2 (priority 2012, dated 2017)

Assay: Assay for determination of apparent permeability (Papp), bi-directional transport
Conditions: pig, LLC-PK1

Row | SMILES | Papp at 3 h, 1 μM
1 | COc1ccccc1CO[C@@H]([C@H]1O[C@@H]2SC(N(C)C)=N[C@@H]2[C@@H](O)[C@@H]1O)C(F)(F)F [Example 49, (3aR,5S,6S,7R,7aR)-2-(dimethylamino)-5-((S)-2,2,2-trifluoro-1-(2-mcthoxybenzyloxy)ethyl)-5,6,7,7a-tetrahydro-3aH-pyrano[3,2-d]thiazole-6,7-diol] | 29.8 ×10⁻⁶ cm/s
2 | COc1ccccc1CO[C@H]([C@H]1O[C@@H]2SC(N(C)C)=N[C@@H]2[C@@H](O)[C@@H]1O)C(F)(F)F [Example 50, (3aR,5S,6S,7R,7aR)-2-(dimethylamino)-5-((R)-2,2,2-trifluoro-1-(2-methoxybenzyloxy)ethyl)-5,6,7,7a-tetrahydro-3aH-pyrano[3,2-d]thiazole-6,7-diol] | 31.5 ×10⁻⁶ cm/s
3 | COc1cccc(CO[C@H]([C@H]2O[C@@H]3SC(N(C)C)=N[C@@H]3[C@@H](O)[C@@H]2O)C(F)(F)F)c1 [Example 51, (3aR,5S,6S,7R,7aR)-2-(dimethylamino)-5-((R)-2,2,2-trifluoro-1-(3-methoxybenzyloxy)ethyl)-5,6,7,7a-tetrahydro-3aH-pyrano[3,2-d]thiazole-6,7-diol] | 30.9 ×10⁻⁶ cm/s
4 | COc1ccc(CO[C@@H]([C@H]2O[C@@H]3SC(N(C)C)=N[C@@H]3[C@@H](O)[C@@H]2O)C(F)(F)F)cc1 [Example 53, (3aR,5S,6S,7R,7aR)-2-(dimethylamino)-5-((R)-2,2,2-trifluoro-1-(4-mcthoxybenzyloxy)ethyl)-5,6,7,7a-tetrahydro-3aH-pyrano[3,2-d]thiazole-6,7-diol] | 33 ×10⁻⁶ cm/s
5 | COc1ccc(CO[C@H]([C@H]2O[C@@H]3SC(N(C)C)=N[C@@H]3[C@@H](O)[C@@H]2O)C(F)(F)F)cc1C [Example 54, (3aR,5S,6S,7R,7aR)-2-(dimethylamino)-5-((R)-2,2,2-trifluoro-1-(4-methoxy-3-methylbenzyloxy)ethyl)-5,6,7,7a-tetrahydro-3aH-pyrano[3,2-d]thiazole-6,7-diol] | 31.3 ×10⁻⁶ cm/s
6 | CCc1cc(CO[C@H]([C@H]2O[C@@H]3SC(N(C)C)=N[C@@H]3[C@@H](O)[C@@H]2O)C(F)(F)F)ccc1OC [Example 59, (3aR,5S,6S,7R,7aR)-2-(dimethylamino)-5-((R)-1-(3-ethyl-4-methoxybenzyloxy)-2,2,2-trifluoroethyl)-5,6,7,7a-tetrahydro-3aH-pyrano[3,2-d]thiazole-6,7-diol] | 29.6 ×10⁻⁶ cm/s
7 | COc1c(C)cc(CO[C@H]([C@H]2O[C@@H]3SC(N(C)C)=N[C@@H]3[C@@H](O)[C@@H]2O)C(F)(F)F)cc1C [Example 60, (3aR,5S,6S,7R,7aR)-2-(dimethylamino)-5-((R)-2,2,2-trifluoro-1-(4-methoxy-3,5-dimethylbenzyloxy)ethyl)-5,6,7,7a-tetrahydro-3aH-pyrano[3,2-d]thiazole-6,7-diol] | 29 ×10⁻⁶ cm/s
8 | CN(C)C1=N[C@@H]2[C@@H](O)[C@H](O)[C@@H]([C@H](OCc3cccc(F)c3)C(F)(F)F)O[C@@H]2S1 [Example 63, (3aR,5S,6S,7R,7aR)-2-(dimethylamino)-5-((S)-2,2,2-trifluoro-1-(3-fluorobenzyloxy)ethyl)-5,6,7,7a-tetrahydro-3aH-pyrano[3,2-d]thiazole-6,7-diol] | 31.2 ×10⁻⁶ cm/s
9 | CN(C)C1=N[C@@H]2[C@@H](O)[C@H](O)[C@@H]([C@@H](OCc3cccc(C(F)(F)F)c3)C(F)(F)F)O[C@@H]2S1 [Example 67, (3aR,5S,6S,7R,7aR)-2-(dimethylamino)-5-((R)-2,2,2-trifluoro-1-(3-(trifluoromethyl)benzyloxy)ethyl)-5,6,7,7a-tetrahydro-3aH-pyrano[3,2-d]thiazole-6,7-diol] | 29.5 ×10⁻⁶ cm/s
10 | CN(C)C1=N[C@@H]2[C@@H](O)[C@H](O)[C@@H]([C@@H](OCc3ccccc3C(F)(F)F)C(F)(F)F)O[C@@H]2S1 [Example 68, (3aR,5S,6S,7R,7aR)-2-(dimethylamino)-5-((R)-2,2,2-trifluoro-1-(2-(trifluoromethyl)benzyloxy)ethyl)-5,6,7,7a-tetrahydro-3aH-pyrano[3,2-d]thiazole-6,7-diol] | 34.1 ×10⁻⁶ cm/s
11 | CN(C)C1=N[C@@H]2[C@@H](O)[C@H](O)[C@@H]([C@@H](OCc3ccc(CF)cc3)C(F)(F)F)O[C@@H]2S1 [Example 69, (3aR,5S,6S,7R,7aR)-2-(dimethylamino)-5-((R)-2,2,2-trifluoro-1-(4-(fluoromethyl)benzyloxy)ethyl)-5,6,7,7a-tetrahydro-3aH-pyrano[3,2-d]thiazole-6,7-diol] | 31.1 ×10⁻⁶ cm/s
12 | CCN(C)C1=N[C@@H]2[C@@H](O)[C@H](O)[C@@H]([C@H](OC)C(F)(F)F)O[C@@H]2S1 [Example 72, (3aR,5S,6S,7R,7aR)-2-(ethyl(methyl)amino)-5-((S)-2,2,2-trifluoro-1-methoxyethyl)-5,6,7,7a-tetrahydro-3aH-pyrano[3,2-d]thiazole-6,7-diol] | 25.4 ×10⁻⁶ cm/s
13 | CCN(C)C1=N[C@@H]2[C@@H](O)[C@H](O)[C@@H]([C@@H](OC)C(F)(F)F)O[C@@H]2S1 [Example 73, (3aR,5S,6S,7R,7aR)-2-(ethyl(methyl)amino)-5-((R)-2,2,2-trifluoro-1-methoxyethyl)-5,6,7,7a-tetrahydro-3aH-pyrano[3,2-d]thiazole-6,7-diol] | 19.9 ×10⁻⁶ cm/s
14 | CNC1=N[C@@H]2[C@@H](O)[C@H](O)[C@@H]([C@@H](OCCC3CCCCC3)C(F)(F)F)O[C@@H]2S1 [Example 80, (3aR,5S,6S,7R,7aR)-5-((R)-1-(2-cyclohexylethoxy)-2,2,2-trifluoroethyl)-2-(methylamino)-5,6,7,7a-tetrahydro-3aH-pyrano[3,2-d]thiazole-6,7-diol] | 28.5 ×10⁻⁶ cm/s
15 | CNC1=N[C@@H]2[C@@H](O)[C@H](O)[C@@H]([C@@H](OCCCc3ccc(F)cc3)C(F)(F)F)O[C@@H]2S1 [Example 83, (3aR,5S,6S,7R,7aR)-2-(methylamino)-5-((R)-2,2,2-trifluoro-1-(3-(4-fluorophenyl)propoxy)ethyl)-5,6,7,7a-tetrahydro-3aH-pyrano[3,2-d]thiazole-6,7-diol] | 29.7 ×10⁻⁶ cm/s
16 | CNC1=N[C@@H]2[C@@H](O)[C@H](O)[C@@H]([C@@H](OCc3ccccc3)C(F)(F)F)O[C@@H]2S1 [Example 84, (3aR,5S,6S,7R,7aR)-5-((R)-1-(benzyloxy)-2,2,2-trifluoroethyl)-2-(methylamino)-5,6,7,7a-tetrahydro-3aH-pyrano[3,2-d]thiazole-6,7-diol] | 27 ×10⁻⁶ cm/s
17 | CCc1ccc(CO[C@H]([C@H]2O[C@@H]3SC(NC)=N[C@@H]3[C@@H](O)[C@@H]2O)C(F)(F)F)cc1 [Example 86, (3aR,5S,6S,7R,7aR)-5-((R)-1-(4-ethylbenzyloxy)-2,2,2-trifluoroethyl)-2-(methylamino)-5,6,7,7a-tetrahydro-3aH-pyrano[3,2-d]thiazole-6,7-diol] | 29.9 ×10⁻⁶ cm/s
18 | CNC1=N[C@@H]2[C@@H](O)[C@H](O)[C@@H]([C@@H](OCc3ccccc3C(F)(F)F)C(F)(F)F)O[C@@H]2S1 [Example 93, (3aR,5S,6S,7R,7aR)-2-(methylamino)-5-((R)-2,2,2-trifluoro-1-(2-(trifluoromethyl)benzyloxy)ethyl)-5,6,7,7a-tetrahydro-3aH-pyrano[3,2-d]thiazole-6,7-diol] | 29.2 ×10⁻⁶ cm/s
19 | CNC1=N[C@@H]2[C@@H](O)[C@H](O)[C@@H]([C@@H](OCc3ccc(C(F)(F)F)cc3)C(F)(F)F)O[C@@H]2S1 [Example 94, (3aR,5S,6S,7R,7aR)-2-(mcthylamino)-5-((R)-2,2,2-trifluoro-1-(4-(trifluoromethyl)benzyloxy)ethyl)-5,6,7,7a-tetrahydro-3aH-pyrano[3,2-d]thiazole-6,7-diol] | 24.6 ×10⁻⁶ cm/s
20 | CNC1=N[C@@H]2[C@@H](O)[C@H](O)[C@@H]([C@@H](OCc3ccc(OC)cc3)C(F)(F)F)O[C@@H]2S1 [Example 97, 2-(methylamino)-5-(2,2,2-trifluoro-1-(4-methoxybenzyloxy)ethyl)-5,6,7,7a-tetrahydro-3aH-pyrano[3,2-d]thiazole-6,7-diol] | 24.7 ×10⁻⁶ cm/s
21 | CNC1=N[C@@H]2[C@@H](O)[C@H](O)[C@@H]([C@@H](OCc3ccc(OC)c(C(F)(F)F)c3)C(F)(F)F)O[C@@H]2S1 [Example 98, (3aR,5S,6S,7R,7aR)-2-(methylamino)-5-((R)-2,2,2-trifluoro-1-(4-methoxy-3-(trifluoromethyl)benzyloxy)ethyl)-5,6,7,7a-tetrahydro-3aH-pyrano[3,2-d]thiazole-6,7-diol] | 29.1 ×10⁻⁶ cm/s
22 | CNC1=N[C@@H]2[C@@H](O)[C@H](O)[C@@H]([C@@H](OCc3ccc(Oc4ccccc4)cc3)C(F)(F)F)O[C@@H]2S1 [Example 99, (3aR,5S,6S,7R,7aR)-2-(methylamino)-5-((R)-2,2,2-trifluoro-1-(4-phenoxybenzyloxy)ethyl)-5,6,7,7a-tetrahydro-3aH-pyrano[3,2-d]thiazole-6,7-diol] | 21.7 ×10⁻⁶ cm/s
23 | CCc1cc(CO[C@H]([C@H]2O[C@@H]3SC(NC)=N[C@@H]3[C@@H](O)[C@@H]2O)C(F)(F)F)ccc1OC [Example 100, (3aR,5S,6S,7R,7aR)-5-((R)-1-(3-ethyl-4-methoxybenzyloxy)-2,2,2-trifluoroethyl)-2-(methylamino)-5,6,7,7a-tetrahydro-3aH-pyrano[3,2-d]thiazole-6,7-diol] | 28.1 ×10⁻⁶ cm/s
24 | CNC1=N[C@@H]2[C@@H](O)[C@H](O)[C@@H]([C@@H](OCc3cc(C)c(OC)c(C)c3)C(F)(F)F)O[C@@H]2S1 [Example 101, (3aR,5S,6S,7R,7aR)-2-(methylamino)-5-((R)-2,2,2-trifluoro-1-(4-methoxy-3,5-dimethylbenzyloxy)ethyl)-5,6,7,7a-tetrahydro-3aH-pyrano[3,2-d]thiazole-6,7-diol] | 28.9 ×10⁻⁶ cm/s
25 | CN(C)C1=N[C@@H]2[C@@H](O)[C@H](O)[C@@H]([C@@H](Oc3ccccc3)C(F)(F)F)O[C@@H]2S1 [Example 107, (3aR,5S,6S,7R,7aR)-2-(dimethylamino)-5-((R)-2,2,2-trifluoro-1-phenoxyethyl)-5,6,7,7a-tetrahydro-3aH-pyrano[3,2-d]thiazole-6,7-diol] | 31.3 ×10⁻⁶ cm/s
26 | COc1ccc(CO[C@@H](C)[C@H]2O[C@@H]3SC(N(C)C)=N[C@@H]3[C@@H](O)[C@@H]2O)cc1 [Example 109, (3aR,5S,6S,7R,7aR)-2-(dimethylamino)-5-((S)-1-(4-methoxybenzyloxy)ethyl)-5,6,7,7a-tetrahydro-3aH-pyrano[3,2-d]thiazole-6,7-diol] | 26.3 ×10⁻⁶ cm/s
